Reference: patent US20240425517A1, “NOVEL COMPOUND FOR DEGRADATION OF TARGET PROTEIN OR POLYPEPTIDE BY POLYUBIQUITINATION” (PRAZER THERAPEUTICS INC., priority 2021, published 2024)
Where a name gives a salt, the structure may show the parent alone.

Biological target: T1, BRD4 proteins (Homo sapiens, UniProt O60885)
T1 construct: endogenous in cells; host or cells: MM.1S
Assay: Degradation of BRD4 protein in MM.1S cell lines (Western blot densitometry)
Type: cell-based
Conditions: MM.1S cells, 10 μM, 24 hours
Outline: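 MM.1S cells in RPMI-1640 with 10% FBS were treated with each degrader at 10 μM for 24 h. RIPA lysates were analysed by SDS-PAGE/Western blot with β-actin as reference, and BRD4 band densitometry was scored as reduction <40% (+), 40-<70% (++) or ≥70% (+++).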

| Compound | BRD4 degrading capacity (%) |
| --- | --- |
| COC(=O)c1ccc(NC(=O)C2CCN(C(=O)C[C@@H]3N=C(c4ccc(Cl)cc4)c4c(sc(C)c4C)-n4c(C)nnc43)CC2)cc1C#CCOS(N)(=O)=O [5-158′, methyl (S)-4-(1-(2-(4-(4-chlorophenyl)-2,3,9-trimethyl-6H-thieno[3,2-f][1,2,4]triazolo[4,3-a][1,4]diazepin-6-yl)acetyl)piperidine-4-carboxamido)-2-(3-(sulfamoyloxy)prop-1-yn-1-yl)benzoate trifluoroacetic acid] | +++ (the degrading capacity was reduced by 70% or more) |
| COC(=O)c1ccc(N2CC3(CN(C(=O)C[C@@H]4N=C(c5ccc(Cl)cc5)c5c(sc(C)c5C)-n5c(C)nnc54)C3)C2)cc1C#CCNC(=O)OC(C)OC(=O)C(C)C (stereo partly drawn) [5-162′, methyl 4-(6-(2-((S)-4-(4-chlorophenyl)-2,3,9-trimethyl-6H-thieno[3,2-f][1,2,4]triazolo[4,3-a][1,4]diazepin-6-yl)acetyl)-2,6-diazaspiro[3.3]heptan-2-yl)-2-(3-(((1-(isobutyryloxy)ethoxy)carbonyl)amino)prop-1-yn-1-yl)benzoate] | +++ (the degrading capacity was reduced by 70% or more) |
| COC(=O)c1ccc(N2CCN(CCCNC(=O)C[C@@H]3N=C(c4ccc(Cl)cc4)c4c(sc(C)c4C)-n4c(C)nnc43)CC2)cc1C#CCN.Cl [5-164′, methyl (S)-2-(3-aminoprop-1-yn-1-yl)-4-(4-(3-(2-(4-(4-chlorophenyl)-2,3,9-trimethyl-6H-thieno[3,2-f][1,2,4]triazolo[4,3-a][1,4]diazepin-6-yl)acetamido)propyl)piperazin-1-yl)benzoate hydrochloride] | +++ (the degrading capacity was reduced by 70% or more) |
| COC(=O)c1cc(N2CCN(CCCNC(=O)C[C@@H]3N=C(c4ccc(Cl)cc4)c4c(sc(C)c4C)-n4c(C)nnc43)CC2)ccc1C#CCN.Cl [5-165′, methyl (S)-2-(3-aminoprop-1-yn-1-yl)-5-(4-(3-(2-(4-(4-chlorophenyl)-2,3,9-trimethyl-6H-thieno[3,2-f][1,2,4]triazolo[4,3-a][1,4]diazepin-6-yl)acetamido)propyl)piperazin-1-yl)benzoate hydrochloride] | +++ (the degrading capacity was reduced by 70% or more) |
| COC(=O)c1ccc(N2CC3(CCN(C(=O)C[C@@H]4N=C(c5ccc(Cl)cc5)c5c(sc(C)c5C)-n5c(C)nnc54)CC3)C2)cc1C#CCN.Cl [5-168′, methyl (S)-2-(3-aminoprop-1-yn-1-yl)-4-(7-(2-(4-(4-chlorophenyl)-2,3,9-trimethyl-6H-thieno[3,2-f][1,2,4]triazolo[4,3-a][1,4]diazepin-6-yl)acetyl)-2,7-diazaspiro[3.5]nonan-2-yl)benzoate hydrochloride] | +++ (the degrading capacity was reduced by 70% or more) |

Biological target: T2, Aurora A proteins (Homo sapiens, UniProt O14965)
T2 construct: endogenous in cells; host or cells: MM.1S
T2 sequence (O14965 1-403): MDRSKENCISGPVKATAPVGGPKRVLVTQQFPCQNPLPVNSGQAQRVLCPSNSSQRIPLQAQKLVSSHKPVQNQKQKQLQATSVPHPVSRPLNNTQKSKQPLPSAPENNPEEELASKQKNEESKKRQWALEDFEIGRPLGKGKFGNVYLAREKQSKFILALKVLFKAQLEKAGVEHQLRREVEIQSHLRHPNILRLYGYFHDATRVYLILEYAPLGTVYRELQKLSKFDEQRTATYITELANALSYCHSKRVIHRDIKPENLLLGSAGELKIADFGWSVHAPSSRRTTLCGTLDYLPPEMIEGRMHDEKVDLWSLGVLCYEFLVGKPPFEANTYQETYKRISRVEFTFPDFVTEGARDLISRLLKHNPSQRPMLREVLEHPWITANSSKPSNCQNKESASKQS
Assay: Degradation of Aurora A protein in MM.1S cell lines (Western blot densitometry)
Type: cell-based
Conditions: MM1.S, 24 h, read-out: Aurora A degrading capacity (%)
Description: Specifically, the MM.1S cells were cultured in RPMI-1640 medium containing 10% fetal bovine serum (FBS), 1% penicillin, and streptomycin (100 U/mL), transferred to a 6-well plate, and after 24 hours, the Aurora A degraders were diluted in the RPMI culture medium and cells were treated with 5 μM concentration thereof. After treatment, the cells were incubated in a CO2 incubator for 24 hours. […] After cell culture was completed according to the experimental conditions, the cells were collected and centrifuged at 1,800 rpm for 3 minutes. The cells in the precipitate were lysed with RIPA (25 mM Tris-HCl pH 7.6, 150 mM NaCl, 1% NP-40, 1% sodium deoxycholate, 0.1% SDS, 1× Protease Inhibitor Cocktail), 5× sample buffer was added, and then heated at 100° C. for 15 minutes. The prepared sample was electrophoresed with sodium dodecyl sulfate poly acrylamide gel electrophoresis (SDS-PAGE), and then the proteins in the gel were transferred to a PVDF membrane using Trans-Blot Turbo. The membrane was treated with a 5% bovine serum albumin (BSA) solution and blocked at room temperature for 2 hours, and then Aurora A and R-actin antibodies were diluted in the 5% BSA solution to react with the membrane at 4° C. overnight. After washed with PBST (0.5% Tween20) 5 times, horse radish peroxidase (HRP)-conjugated secondary antibodies were diluted in PBST to react at room temperature for 2 hours, and then washed again with a PBST solution 5 times. After enzyme-substrate reaction was carried out using a HRP substrate, a signal was measured with chemi-doc equipment, and the densitometry of a band corresponding to the Aurora A protein detected in the Preparation Example Compounds was quantitatively analyzed. The case when the degrading capacity of each Aurora A degrader was reduced by less than 40% is indicated as +, the case when the degrading capacity was reduced by 40% to 70% (exclusive of 70) is indicated as ++, the case when the degrading capacity was reduced by 70% or more is indicated as +++ in Tables 20 to 23 below.

| Compound | Aurora A degradation (%) at 5 µM |
| --- | --- |
| COc1cc(Nc2ncc3c(n2)-c2ccc(Cl)cc2C(c2c(F)cccc2OC)=NC3)ccc1C(=O)Nc1ccc(C#CCN)cc1 [1-1″, N-(4-(3-aminoprop-1-yn-1-yl)phenyl)-4-((9-chloro-7-(2-fluoro-6-methoxyphenyl)-5H-benzo[c]pyrimido[4,5-e]azepin-2-yl)amino)-2-methoxybenzamide trifluoroacetic acid] | > 70% |
| COc1cc(Nc2ncc3c(n2)-c2ccc(Cl)cc2C(c2c(F)cccc2OC)=NC3)ccc1C(=O)Nc1cccc(C#CCN)c1 [1-3″, N-(3-(3-aminoprop-1-yn-1-yl)phenyl)-4-((9-chloro-7-(2-fluoro-6-methoxyphenyl)-5H-benzo[c]pyrimido[4,5-e]azepin-2-yl)amino)-2-methoxybenzamide trifluoroacetic acid] | > 70% |
| COC(=O)c1ccc(NC(=O)c2ccc(Nc3ncc4c(n3)-c3ccc(Cl)cc3C(c3c(F)cccc3OC)=NC4)cc2OC)cc1C#CCN [3-25″, methyl 2-(3-aminoprop-1-yn-1-yl)-4-(4-((9-chloro-7-(2-fluoro-6-methoxyphenyl)-5H-benzo[c]pyrimido[4,5-e]azepin-2-yl)amino)-2-methoxybenzamido)benzoate trifluoroacetic acid] | < 40% |
| COc1cc(Nc2ncc3c(n2)-c2ccc(Cl)cc2C(c2c(F)cccc2OC)=NC3)ccc1C(=O)Nc1ccc(C#CC(N)CO)cc1 (stereo not drawn) [3-49″, N-(4-(3-amino-4-hydroxybut-1-yn-1-yl)phenyl)-4-((9-chloro-7-(2-fluoro-6-methoxyphenyl)-5H-benzo[c]pyrimido[4,5-e]azepin-2-yl)amino)-2-methoxybenzamide trifluoroacetic acid] | > 70% |
| COc1cc(Nc2ncc3c(n2)-c2ccc(Cl)cc2C(c2c(F)cccc2OC)=NC3)ccc1C(=O)NCC#Cc1ccc(C#CCN)o1 [4-1″, N-(3-(5-(3-aminoprop-1-yn-1-yl)furan-2-yl)prop-2-yn-1-yl)-4-((9-chloro-7-(2-fluoro-6-methoxyphenyl)-5H-benzo[c]pyrimido[4,5-e]azepin-2-yl)amino)-2-methoxybenzamide trifluoroacetic acid] | > 70% |
| COc1cc(Nc2ncc3c(n2)-c2ccc(Cl)cc2C(c2c(F)cccc2OC)=NC3)ccc1C(=O)NCCCCCC(=O)Nc1ccc(C#CCN)cc1 [4-165″, N-(6-((4-(3-aminoprop-1-yn-1-yl)phenyl)amino)-6-oxohexyl)-4-((9-chloro-7-(2-fluoro-6-methoxyphenyl)-5H-benzo[c]pyrimido[4,5-e]azepin-2-yl)amino)-2-methoxybenzamide trifluoroacetic acid] | > 70% |
| COc1cc(Nc2ncc3c(n2)-c2ccc(Cl)cc2C(c2c(F)cccc2OC)=NC3)ccc1C(=O)NCCCNC(=O)c1ccc(C#CCN)o1 [4-166″, 5-(3-aminoprop-1-yn-1-yl)-N-(3-(4-((9-chloro-7-(2-fluoro-6-methoxyphenyl)-5H-benzo[c]pyrimido[4,5-e]azepin-2-yl)amino)-2-methoxybenzamido)propyl)furan-2-carboxamide trifluoroacetic acid] | < 40% |
| COC(=O)c1ccc(NC(=O)CCCNC(=O)c2ccc(Nc3ncc4c(n3)-c3ccc(Cl)cc3C(c3c(F)cccc3OC)=NC4)cc2OC)cc1C#CCN [4-228″, methyl 2-(3-aminoprop-1-yn-1-yl)-4-(4-(4-((9-chloro-7-(2-fluoro-6-methoxyphenyl)-5H-benzo[c]pyrimido[4,5-e]azepin-2-yl)amino)-2-methoxybenzamido)butanamido)benzoate trifluoroacetic acid] | 40 to 70% |
| COc1cc(Nc2ncc3c(n2)-c2ccc(Cl)cc2C(c2c(F)cccc2OC)=NC3)ccc1C(=O)NCCCC(=O)Nc1ccc(C#CCN)c(CO)c1 [5-8″, N-(4-((4-(3-aminoprop-1-yn-1-yl)-3-(hydroxymethyl)phenyl)amino)-4-oxobutyl)-4-((9-chloro-7-(2-fluoro-6-methoxyphenyl)-5H-benzo[c]pyrimido[4,5-e]azepin-2-yl)amino)-2-methoxybenzamide trifluoroacetic acid] | < 40% |

Same assay, conditions: MM1.S; MM.1S cells, 5 μM, 24 hours, Western blot; read-out: Aurora A degrading capacity (%)

| Compound | Aurora A degradation (%) at 5 µM |
| --- | --- |
| COC(=O)c1ccc(C(=O)NCCCNC(=O)c2ccc(Nc3ncc4c(n3)-c3ccc(Cl)cc3C(c3c(F)cccc3OC)=NC4)cc2OC)cc1C#CCN [5-18″, methyl 2-(3-aminoprop-1-yn-1-yl)-4-((3-(4-((9-chloro-7-(2-fluoro-6-methoxyphenyl)-5H-benzo[c]pyrimido[4,5-e]azepin-2-yl)amino)-2-methoxybenzamido)propyl)carbamoyl)benzoate hydrochloride] | > 70% |
